Experimental findings from patent US20220356170A1, “SREBP INHIBITOR COMPRISING A THIOPHENE CENTRAL RING” (Capulus Therapeutics, LLC, priority 2019, published 2022) are described below.

The IC50 is the point on the concentration scale where inhibition reaches its midpoint. Low values mean inhibition by little substance, high ones a need for much substance. As usually defined, the half-life is the time needed for the level to fall by half in the phase considered.

Bounds are passed on as bounds.

One series deals with MDAMB468. In words: Cancer cell growth inhibition, Sulforhodamine B. Format: cell-based. The following applies: Homo sapiens, MDA-MB-468, 72 h, MDAMB468 (breast). The gist of the method:
(§1)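 Six-concentration 10-fold series, DMSO stocks 10 mM–0.1 uM, 0.1% DMSO final, one replicate each; 72 hr treatment; SRB staining; IC50/GI50/IC10/TGI/LC50/IC90/GI90 calculated where possible.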

In the next series the test system is A549. Nature of the series: Cancer cell growth inhibition, Sulforhodamine B. Format: cell-based. The following applies: Homo sapiens; A549 (lung), 72 hr; Responder Cell Lines. A digest of the protocol:
as §1

The next series deals with A2780. Nature of the series: Cancer cell growth inhibition, Sulforhodamine B. The format is cell-based. The following applies: Homo sapiens; A2780 (ovary), 72 hr; Responder Cell Lines. A digest of the protocol:
as §1

The next series relates to CALU6. Nature of the series: Cancer cell growth inhibition, Sulforhodamine B. Format: cell-based. The following applies: Homo sapiens, Calu-6; CALU6 (lung), 72 hr; Non-Responder Cell Lines with IC50 >10 uM or Not Determined. A digest of the protocol: as §1
The subject of another series is UO31. In words: Cancer cell growth inhibition, Sulforhodamine B. Format: cell-based. The following applies: Homo sapiens, UO-31; UO31 (kidney), 72 hr; Non-Responder Cell Lines with IC50 >10 uM or Not Determined. The gist of the method:
as §1

In a further series the test system is T24. In words: Cancer cell growth inhibition, Sulforhodamine B. Format: cell-based. The following applies: Homo sapiens, T-24; T24 (bladder), 72 hr; Non-Responder Cell Lines with IC50 >10 uM or Not Determined. The gist of the method:
as §1

For a further series, the system named is MDAMB435. In words: Cancer cell growth inhibition, Sulforhodamine B. Format: cell-based. The following applies: Homo sapiens, MDA-MB-435; MDAMB435 (skin), 72 hr; Responder Cell Lines. A digest of the protocol:
as §1

Another series deals with NCIH292. In words: Cancer cell growth inhibition, Sulforhodamine B. The following applies: Homo sapiens, NCI-H292; NCIH292 (lung), 72 hr; Non-Responder Cell Lines with IC50 >10 uM or Not Determined. Format: cell-based. A digest of the protocol:
as §1

In a further series the test system is MG63. Nature of the series: Cancer cell growth inhibition, Sulforhodamine B. The format is cell-based. The following applies: Homo sapiens, MG-63; MG63 (bone), 72 hr; Non-Responder Cell Lines with IC50 >10 uM or Not Determined. The gist of the method: as §1
The test system of a further series is OVCAR3. In words: Cancer cell growth inhibition, Sulforhodamine B. The following applies: Homo sapiens, OVCAR-3, 72 h, OVCAR3 (ovary). Format: cell-based. The gist of the method: as §1
The subject of another series is NCIH460. Nature of the series: Cancer cell growth inhibition, Sulforhodamine B. Format: cell-based. The following applies: Homo sapiens, NCI-H460; NCIH460 (lung), 72 hr; Non-Responder Cell Lines with IC50 >10 uM or Not Determined. The gist of the method: as §1
Series [1] in a line: In vitro % Fu, mouse plasma. The format is in vitro ADME. The following applies: read-out: In Vitro % Fu (Mo Plasma).
Series [2] is described as follows: Half-life in mouse liver microsomes. The format is in vitro ADME. The following applies: read-out: Mouse LM: Half life. The protocol: Half-life Human Microsomes: Compound 1 was evaluated for stability in human liver microsomes. A 10 mM stock solution of Compound 1 was prepared in DMSO and diluted with water: acetonitrile (1:1) to a concentration of 1 mM. A working concentration of 100 μM was prepared by further dilution with water: acetonitrile (1:1). To make the preincubation mixture, 2.5 μL of the diluted Compound 1 was combined with 75 μL of human liver microsomes at 3.33 mg/mL, and 85 μL of 100 mM potassium phosphate buffer, and this mixture pre-incubated for 10 min at 37° C. To make the 60 minute mixture without cofactor, 32.5 μL of the preincubation mixture was combined with 17.5 μL of 100 mM potassium phosphate buffer and incubated for 60 min at 37° C. […] To prepare the sample mixture to be evaluated, 25 μL incubation mixture was combined with 200 μL of acetonitrile containing internal standard and vortexed for 5 min at 1200 rpm, then centrifuged for 10 min at 4000 rpm. […] The sample mixture was evaluated by LC-MS/MS using 10 mM ammonium acetate with 0.1% FA as the aqueous mobile phase, and methanol as the organic mobile phase.
Half-life Rat and Mouse Microsomes: Compound 1 was evaluated in rat and mouse liver microsomes following a similar procedure as described above for human liver microsomes.
Background: Microsomes from liver hold many membrane-bound enzymes, among them those of drug oxidation.

Series [3] deals with SREBP Target Gene in HepG2 cells. In words: Q-PCR analysis of SREBP target gene expression. The following applies: 500 nM, 48 hour. Format: cell-based. The protocol: The effect of Compound 1 on the gene expression of HepG2 cells was evaluated.
HepG2 cells (P2) were seeded in 24 well plate (80,000 cells/ well) for RNA extraction and in a 96 well plate (10,000 cells/ well) for Cell Titer Glow (CTG). The media used was DMEM and contained 10% FBS. Compound 1 was evaluated at […] for 48 hours. Two biological replicates per experimental group were evaluated for RNA, and 3 biological replicates per experimental group analyzed with CTG.
For gene analysis RNA was harvested with RNEasy kit and 20-100 ng used to synthesize cDNA with random primers. Quantitative PCR was performed on 1 pg to 100 ng cDNA for the following genes: ACACA, ACLY, FASN, LSS, PNPLA3. Gene expression levels were determined using […] comparing treated to mock or vehicle treated cells as a baseline.

Setting [4] is: Non-Responder Cell Lines with IC50 >10 uM or Not Determined.
[5] abbreviates: treated compared to mock or vehicle treated cells as baseline.

`CC(C)(O)c1cc(-c2csc(-c3ccc(C(=O)N4CCC(O)CC4)cc3Cl)c2)ccn1` [Compound 1, (3-chloro-4-(4-(2-(2-hydroxypropan-2-yl)pyridin-4-yl)thiophen-2-yl)phenyl)(4-hydroxypiperidin-1-yl)methanone]: the IC50 in the series with MDAMB468 (setting [4]) was > 10 µM; with MDAMB468 (Responder Cell Lines), < 10 µM; in the series on A549, < 10 µM; in the series with A2780, < 10 µM; in the series on CALU6 it was > 10 µM; in the series on UO31, > 10 µM. The IC50 in the series with T24 was > 10 µM; in the series on MDAMB435, < 10 µM; with NCIH292 it was > 10 µM; in the series on MG63 it was > 10 µM; in the series with OVCAR3 (setting [4]) it was > 10 µM; with OVCAR3 (Responder Cell Lines), < 10 µM. Further, the IC50 with NCIH460 is > 10 µM. For the same molecule, the fraction unbound in series [1] turned out to be 0.007. In addition, the half-life at 1 µM in series [2] came to 2 h. Also, the “Total Gene Average” value in series [3] (average of ACACA, ACLY, FASN, LSS, PNPLA3) is reported as 0.467. Besides, the “ACACA gene expression (Q-PCR)” value in series [3] (setting [5]) was found to be 0.648. Also, the “ACLY gene expression (Q-PCR)” value in series [3] (setting [5]) was 0.663. In addition, the “FASN gene expression (Q-PCR)” value in series [3] (setting [5]) stood at 0.542. In addition, the “LSS gene expression (Q-PCR)” value in series [3] (setting [5]) was found to be 0.295. The “PNPLA3 gene expression (Q-PCR)” value in series [3] (setting [5]) is 0.187.
